Reference: patent US9182408B2 (priority 2004, dated 2015)
Where two headings read alike, the source gives them in different places.

Columns and labels:
ERα [1] = target: ERα (Homo sapiens, UniProt P03372)
Procedure: (§1) Yeast two-hybrid experiments are carried out in the yeast strain (MATa; his3-Δ200; leu2-3,112; trp1-901; [plexAop]4::HIS3; [plexAop]8::lacZ), in which expression of the two reporter genes HIS3 and LacZ is under the control of the LexA operator sequence. This yeast strain cannot grow in absence of histidine in the culture medium, and yeast growth can be rescued only if expression of HIS3 gene is induced. Similarly, the LacZ reporter gene encoding the β-galactosidase marker is not expressed in this yeast strain. The bait plasmids encoding either the full-length or a region of the target protein (Nuclear Receptor, viral proteins for example), and the random peptide/VP16-AD library were transformed into the yeast strain and yeast colonies growing in absence of histidine were selected. […] Growth of false positive clones may be prevented by adding 3-amino-triazole (3AT), a competitive inhibitor of HIS3, to the medium. […] All conformation sensitive peptides dissociated by both target protein agonists and antagonists were selected for further characterization with the aim to develop screening platforms that allow the search of both activators and inhibitors of target protein in one single assay. The biological activity of each isolated conformation sensitive peptide is reconfirmed by isolation of conformation sensitive peptide encoding plasmids, re-transformation into yeast strain and analysis of HIS3 and lacZ gene expression in absence of histidine and in presence of target protein or non-target protein ligands in a spot test, as well as in a quantitative LacZ assay. 4.1—Identification in Yeast of Conformation Sensitive Peptides Interacting with the Estrogen Receptor
The bait plasmids encoding the full length or the DEF regions of the ERα and the prey peptide/VP16-AD VV01 library (diversity of 6.10^7) were transformed into the yeast strain. Yeast colonies growing in absence of histidine were selected. […] Growth of false positive clones was prevented by adding 3-amino-triazole (3AT), a competitive inhibitor of HIS3 to the medium. […] Out of the 484 clones, 40 were randomly picked for further studies.
The biological activity of each isolated 3D-Screen peptide was reconfirmed by isolation of 3D-Screen encoding plasmids, retransformation into the yeast strain (MATa; his3-Δ200; leu2-3,112; trp1-901; [plexAop]4::HIS3; [plexAop]8::lacZ) and analysis of HIS3 and lacZ gene expression in absence of Histidine and in presence of ER or non-ER ligands in a spot test.

ERα [2] = system: ERα
Source text: FIG. 10: Generation of a 3D-screen human cell screening platform for ERα Hela cells are transiently transfected with three expression plasmids encoding the reporter gene luciferase (eg. UAS-Luc), the target protein fused to a DNA Binding Domain (DBD) and the conformation sensitive peptide previously screened in yeast and fused to the VP16-AD, respectively with the jetPEI reagent. […] This platform was used to screen a small molecule library.
Hela cells are transiently transfected with three expression plasmids encoding the reporter gene luciferase (eg. UAS-Luc), the ERα fused to a DNA Binding Domain (DBD) and the conformation sensitive peptide previously screened in yeast and fused to the VP16-AD, respectively, with the jetPEI reagent. Cells are grown in the absence of any ligand (DMSO, lane 1; ethanol, lane 2), or in the presence of ER ligands (agonists E2, DES or antagonists 4OHT, lane 3-5) or non-ER ligands (Dex and 9C-RA; lanes 8 & 9), or in the presence of Estren (lane 6) at 100 nM (right panel) and 10 μM (left panel).
Hela cells are transiently transfected with three expression plasmids encoding the reporter gene luciferase (eg. UAS-Luc), the ERα fused to a DNA Binding Domain (DBD) and the conformation sensitive peptide previously screened in yeast and fused to the VP16-AD, respectively, with the jetPEI reagent.
HeLa cells were transiently transfected with plasmid using the optimized jetPEI transfection protocol (PolyPlus Transfection, Illkirch, France). […] Chemical ligands are added to the cell culture medium 24H after transfection. Luciferase activity was measured 24H later. […] Cells are trypsinised and plated in 96 well-plates (or 384 well-plates) at 5×10^4 cells per well 24H after transfection, and small molecules are added upon cell adhesion. Luciferase activity is measured 24 H later.
The three expression plasmids, UAS-luc, full-length ER and 3D-screen/VP16AD (#30-2) were co-transfected in Hela cells in large dishes. Cells were then reseeded in a 96-well plate format 24 H after transfection and chemical compounds are added upon cell adhesion. Luciferase activity was measured 24 H later. Internal controls were also included, consisting in known ER- or non-ER ligands as previously indicated.

wild-type ERα = wild-type ERα (Homo sapiens, UniProt P03372); conditions: HeLa, ERE-luc, 24 H
Sequence of wild-type ERα (P03372 whole entry): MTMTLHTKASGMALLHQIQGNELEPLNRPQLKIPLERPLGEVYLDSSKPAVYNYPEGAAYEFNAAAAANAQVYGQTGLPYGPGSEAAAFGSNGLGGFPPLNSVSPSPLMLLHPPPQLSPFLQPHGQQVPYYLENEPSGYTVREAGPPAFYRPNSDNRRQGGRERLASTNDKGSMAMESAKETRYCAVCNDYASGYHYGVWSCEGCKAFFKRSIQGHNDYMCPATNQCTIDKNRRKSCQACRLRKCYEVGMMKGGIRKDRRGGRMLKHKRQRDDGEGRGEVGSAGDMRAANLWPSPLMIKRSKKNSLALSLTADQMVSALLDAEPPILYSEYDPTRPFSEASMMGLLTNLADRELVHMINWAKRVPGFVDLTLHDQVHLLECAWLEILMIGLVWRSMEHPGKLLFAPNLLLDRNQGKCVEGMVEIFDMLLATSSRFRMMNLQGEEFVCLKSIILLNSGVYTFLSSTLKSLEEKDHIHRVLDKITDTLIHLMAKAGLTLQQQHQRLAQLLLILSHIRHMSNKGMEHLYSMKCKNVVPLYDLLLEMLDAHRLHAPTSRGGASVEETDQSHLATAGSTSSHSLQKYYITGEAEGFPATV
Procedure: Furthermore, the potential agonist and antagonist properties of these hits were investigated in HeLa cells by co-transfection of an ERE-luc reporter plasmid, in which the luciferase gene is under the control of the estrogen-responsive elements (ERE), and an expression plasmid encoding the wild-type ERα. Transfections were performed as previously described for the primary screening, and cells are inclubated for 24 H either in the presence of the chemical hits alone to test for their agonist activity, or in the presence of the hit together with 100 nM E2 to test for their antagonist activity.

bone cells = conditions: cited from earlier work
[3] = target: NS5B protein of Hepatitis C virus (Hepatitis C virus genotype 1b, UniProt P26663); conditions: NS5BΔ21 bait, medium without Histidine; Gliotoxin 20 μM
Procedure: Yeast two-hybrid experiments are carried out in the yeast strain (MATa; his3-Δ200; leu2-3,112; trp1-901; [plexAop]4::HIS3; [plexAop]8::lacZ), in which expression of the two reporter genes HIS3 and LacZ is under the control of the LexA operator sequence. This yeast strain cannot grow in absence of histidine in the culture medium, and yeast growth can be rescued only if expression of HIS3 gene is induced. Similarly, the LacZ reporter gene encoding the β-galactosidase marker is not expressed in this yeast strain. The bait plasmids encoding either the full-length or a region of the target protein (Nuclear Receptor, viral proteins for example), and the random peptide/VP16-AD library were transformed into the yeast strain and yeast colonies growing in absence of histidine were selected. […] Growth of false positive clones may be prevented by adding 3-amino-triazole (3AT), a competitive inhibitor of HIS3, to the medium. […] The biological activity of each isolated conformation sensitive peptide is reconfirmed by isolation of conformation sensitive peptide encoding plasmids, re-transformation into yeast strain and analysis of HIS3 and lacZ gene expression in absence of histidine and in presence of target protein or non-target protein ligands in a spot test, as well as in a quantitative LacZ assay. […]

[4] = target: human retinoic acid receptor alpha (RARα) (Homo sapiens, UniProt P10276); conditions: RAR-DEF bait, 28 selected clones, medium without histidine
Sequence of human retinoic acid receptor alpha (RARα) (P10276 183-417 limits assumed): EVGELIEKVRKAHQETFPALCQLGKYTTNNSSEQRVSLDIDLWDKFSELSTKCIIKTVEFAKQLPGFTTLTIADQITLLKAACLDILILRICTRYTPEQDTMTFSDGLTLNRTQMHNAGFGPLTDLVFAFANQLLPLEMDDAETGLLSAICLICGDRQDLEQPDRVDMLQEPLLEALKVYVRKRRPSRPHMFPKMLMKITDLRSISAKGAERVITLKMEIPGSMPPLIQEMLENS
Procedure: as §1

Sequence of ERα (Homo sapiens, UniProt P03372) (P03372 311-547 limits assumed): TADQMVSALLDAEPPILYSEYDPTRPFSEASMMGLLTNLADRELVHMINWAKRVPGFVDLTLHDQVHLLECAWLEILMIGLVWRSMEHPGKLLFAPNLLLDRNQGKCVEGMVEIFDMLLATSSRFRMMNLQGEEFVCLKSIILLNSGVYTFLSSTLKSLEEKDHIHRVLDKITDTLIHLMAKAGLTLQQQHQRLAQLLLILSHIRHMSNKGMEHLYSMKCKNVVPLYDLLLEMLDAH

| Compound | peptide binding to ER in the presence of non-ER ligands (growth, lacZ) (ERα [1]) | peptide binding to ER on addition of ER ligands (growth under selective conditions) (ERα [1]) | reporter genes (His3 and LacZ) on interaction of peptide with ER in the un-liganded form (ERα [1]) | luciferase expression (FIG. 13) (ERα [2]) | also measured |
| --- | --- | --- | --- | --- | --- |
| S C C T Q H V C Y R P R A Y R [peptide 5-21] | all clones are growing under selective conditions and stain positive for lacZ | clones are not growing under selective conditions | clones are growing under selective conditions and stain positive for lacZ |  |  |
| Estren |  |  |  |  | luciferase expression (FIG. 11) (ERα [2]): preventing the expression of luciferase; agonist activity (hit alone) (wild-type ERα): do not allow the identification; antagonist activity (hit together with 100 nM E2) (wild-type ERα): do not allow the identification; apoptosis of bone cells and effect on reproductive organs (bone cells): prevent apoptosis of bone cells without affecting the reproductive organs |
| NC(=O)c1ncn([C@@H]2O[C@H](CO)[C@@H](O)[C@H]2O)n1 [ribavirin] |  |  |  |  | effect of added compound on yeast growth and HIS3/LacZ expression (dissociation of peptides from NS5B) [3]: no effect on yeast growth |
| C[C@]12CC[C@@H]3c4ccc(O)cc4C[C@@H](CCCCCCCCC[S+]([O-])CCCC(F)(F)C(F)(F)F)[C@H]3[C@@H]1CC[C@@H]2O (stereo partly drawn) [ICI182780] |  |  |  | preventing the expression of luciferase | luciferase expression upon addition of ligand (ERα [2]): strongly reduced |
| F C T P I R M F Y R A P L W D L N K [peptide 30-2] | all clones are growing under selective conditions and stain positive for lacZ | clones are not growing under selective conditions | clones are growing under selective conditions and stain positive for lacZ |  |  |
| CN1C(=O)[C@]23CC4=CC=C[C@H](O)[C@H]4N2C(=O)[C@@]1(CO)SS3 [gliotoxin] |  |  |  |  | effect of added compound on yeast growth and HIS3/LacZ expression (dissociation of peptides from NS5B) [3]: shut-off of HIS3 and the prevention of growth of the yeast |
| 9-cis retinoic acid |  |  |  | strong | luciferase expression (FIG. 11) (ERα [2]): strong; effect of added ligand on growth and LacZ expression of yeast clones (dissociation of peptide/VP16AD from ERα) (ERα [1]): no effect; effect of added ligand on growth of yeast clones (dissociation of peptide/VP16AD from RARα) [4]: suppresses the growth of 14 of these clones |
| CC1=C(/C=C/C(C)=C/C=C/C(C)=C/C(=O)O)C(C)(C)CCC1 [all-trans-Retinoic Acid] |  |  |  | strong | effect of added ligand on growth of yeast clones (dissociation of peptide/VP16AD from RARα) [4]: suppresses the growth of 14 of these clones; effect of added ligand on growth of yeast clones (dissociation of peptide/VP16AD from RARα) ([4]; listed as AT-RA): selective dissociation of the peptide/VP16AD protein induced only by the AT-RA ligand |
| S I T T L F Y H A M F G F V P [peptide 9-23] | all clones are growing under selective conditions and stain positive for lacZ | clones are not growing under selective conditions | clones are growing under selective conditions and stain positive for lacZ |  |  |
